From patent US5436369A, “Alicyclic phospholipase A2 inhibitors” (Bristol-Myers Squibb Company, priority 1994, dated 1995)

What follows are compounds tested against T1, PLA2 (Homo sapiens, UniProt P14555) (assay: PLA2 Inhibition Assay (14C-oleate labeled E. coli membrane substrate)). Settings: Table 1, Structure 11 (Type IA); 100 μM; enzyme isolated from human platelets.
T1 construct: The enzyme is isolated from human platelets; from tissue; host or cells: human platelets
T1 sequence (P14555 21-144): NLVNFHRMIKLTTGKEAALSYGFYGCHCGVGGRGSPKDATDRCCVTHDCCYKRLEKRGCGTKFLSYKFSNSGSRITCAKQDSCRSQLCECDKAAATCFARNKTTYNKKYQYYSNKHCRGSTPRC
Assay type: biochemical
Experimental: The method used is similar to that reported by Franson, et al. [Jesse, R. L. and Franson R. C., Biochim. Biophys. Acta 575:467-470 (1979); Franson, R. C., Patriarca, P., and Elsback, P., J. Lipid Res. 15: 380-388 (1974)]. The enzyme is isolated from human platelets. The substrate used consists of ^14 C-oleate labeled Escherichia coli membranes. E. coli cells are grown in the presence of ^14 C-oleic acid and then autoclaved to prepare the membranes.
Various concentrations of test compounds are pre-incubated with PLA2 (3.6 μg/mL in a buffer consisting of 25 mM HEPES (pH 7)), 150 mM NaCl, 5.0 mM CaCl2, and 10% DMSO (v/v, test compound solvent) at 37° C. for 7 minutes. The E. coli membrane substrate is then added (0.1 mM phospholipid, 0.005 μCi ^14 C) and the reaction is then incubated at 37° C. for 30 minutes. The reaction is then terminated by the addition of 1.9 mL tetrahydrofuran (THF), and the entire solution is applied to a solid-phase extraction column (aminopropyl resin, Analytichem). The column is rinsed with an additional 1 mL of THF. The free fatty acid product of the reaction is then eluted from the column with 1 mL of 2% acetic acid in THF and collected in a scintillation vial. The amount of free fatty acid product is determined by liquid scintillation counting. The amount of inhibition produced by the test compound is calculated by comparing the counts obtained in the presence of the compound to those obtained in its absence (solvent only). Background counts were determined by performing incubations in the absence of enzyme.
Percent inhibition is determined by the equation: [formula]
`O=C(O)/C=C\C(=C\c1ccccc1)c1cccc(C(=O)O)c1` [Structure 11a, (2Z),(4Z)-4-(3-Carboxyphenyl)-5-phenyl-2,4-pentadienoic acid] gave an inhibition at 100 µM of 6%. In the case of `CC1(C)CCC(C)(C)c2cc(/C=C(/C=C\C(=O)O)c3cccc(C(=O)O)c3)ccc21` [Structure 11b, (2Z),(4Z)-4-(3-Carboxyphenyl)-5-(5,6,7,8-tetrahydro-5,5,8,8-tetramethyl-2-naphthalenyl)-2,4-pentadienoic acid], the inhibition at 100 µM is reported as 44%. `CC1(C)CCC(C)(C)c2cc3cc(/C=C(/C=C\C(=O)O)c4cccc(C(=O)O)c4)ccc3cc21` [Structure 11c, (2Z),(4Z)-4-(3-Carboxyphenyl)-5-(5,6,7,8-tetrahydro-5,5,8,8-tetramethyl-2-anthracenyl)-2,4-pentadienoic acid] gave an inhibition at 100 µM of 97%. `CCCCCCCCCCOc1ccc(/C=C(/C=C\C(=O)O)c2cccc(C(=O)O)c2)cc1` [Structure 11d, (2Z),(4Z)-4-(3-Carboxyphenyl)-5-(4-decyloxyphenyl)-2,4-pentadienoic acid] gave an inhibition at 100 µM of 100%. Compound `CCCCCCCCCCOc1ccc(/C=C(/C=C\C(=O)O)c2cccc(C(=O)O)c2)cc1OCCCCCCCCCC` [Structure 11e, (2Z),(4Z)-4-(3-Carboxyphenyl)-5-(3,4-bisdecyloxyphenyl)-2,4-pentadienoic a cid] has an inhibition at 100 µM of 100%. `O=C(O)/C=C\C(=C\CCc1ccccc1)c1cccc(C(=O)O)c1` [Structure 11f, (2Z),(4Z)-4-(3-Carboxyphenyl)-7-phenyl-2,4-heptadienoic acid] gave an inhibition at 100 µM of 15%. Work on `CC1(C)CCC(C)(C)c2cc(CC/C=C(/C=C\C(=O)O)c3cccc(C(=O)O)c3)ccc21` [Structure 11g, (2Z),(4Z)-4-(3-Carboxyphenyl)-7-(5,6,7,8-tetrahydro-5,5,8,8-tetramethyl-2-naphthalenyl)-2,4-heptadienoic acid] yielded an inhibition at 100 µM of 58%. `C\C(=C/C=C(/C=C\C(=O)O)c1cccc(C(=O)O)c1)c1ccc2c(c1)C(C)(C)CCC2(C)C` [Structure 11h, (2Z),(4Z),(6E)-4-(3-Carboxyphenyl)-7-(5,6,7,8-tetrahydro-5,5,8,8-tetramethyl-2-naphthalenyl)-2,4,6-octatrienoic acid] gave an inhibition at 100 µM of 97%. For `COc1cc(CC/C=C(/C=C\C(=O)O)c2cccc(C(=O)O)c2)ccc1C12CC3CC(CC(C3)C1)C2` [Structure 11i, (2Z),(4Z)-4-(3-Carboxyphenyl)-7-[4-(1-adamantyl)-3-methoxyphenyl]-2,4-heptadienoic acid], the inhibition at 100 µM was 100%. `COc1ccc(CC/C=C(/C=C\C(=O)O)c2cccc(C(=O)O)c2)cc1C12CC3CC(CC(C3)C1)C2` [Structure 11j, (2Z),(4Z)-4-(3-Carboxyphenyl)-7-[3-(1-adamantyl)-4-methoxyphenyl]-2,4-heptadienoic acid] was tested, and the inhibition at 100 µM was 98%. Work on `CC(=C/C(=O)O)/C(=C/c1ccc2cc3c(cc2c1)C(C)(C)CCC3(C)C)c1cccc(C(=O)O)c1` [Structure 11k, (2Z),(4Z)-3-Methyl-4-(3-carboxyphenyl)-5-(5,6,7,8-tetrahydro-5,5,8,8-tetramethyl-2-anthracenyl)-2,4-pentadienoic acid] yielded an inhibition at 100 µM of 98%.

Same assay, conditions: Table 2, Structure 14 (Type IA); 100 μM; enzyme isolated from human platelets
`CCCCCCCCCCOc1ccc(/C=C(/C=C\C(=O)O)c2cccc(C(F)(F)F)c2)cc1` [Structure 14a, (2Z),(4Z)-4-(3-Trifluoromethylphenyl)-5-(4-decyloxyphenyl)-2,4-pentadienoic acid] gave an inhibition at 100 µM of 100%. `CCCCCCCCCCOc1cccc(/C=C(/C=C\C(=O)O)c2cccc(C(F)(F)F)c2)c1` [Structure 14b, (2Z),(4Z)-4-(3-Trifluoromethylphenyl)-5-(3-decyloxyphenyl)-2,4-pentadienoic acid] was tested, and the inhibition at 100 µM was 100%. With `CCCCCCCCCCOc1ccccc1/C=C(/C=C\C(=O)O)c1cccc(C(F)(F)F)c1` [Structure 14c, (2Z),(4Z)-4-(3-Trifluoromethylphenyl)-5-(2-decyloxyphenyl)-2,4-pentadienoic acid] the “% Inhibition of PLA2 at 100 μM” value was 92%.

Same assay, conditions: Table 5, Structure 32 (Type IC); 100 μm as printed; enzyme isolated from human platelets
In the case of `C/C(=C\CC(/C=C\C(=O)O)c1cccc(C(=O)O)c1)c1ccc2c(c1)C(C)(C)CCC2(C)C` (racemic) [Structure 32c], the “% Inhibition of PLA2 at 100 μm” value is reported as 67%.
